Values joined by “and” are separate entries in the source; they are usually repeats but may differ in a detail not shown here. Equal entries are not always repeated. *: point of attachment. Cbz = O=C(OCc1ccccc1)*
Assays:
EL-4.Ub-R-GFP-Q112 cells = experiment: Ub-R-GFP-Q112 poly-Glutamine reporter substrate degradation in stably transfected EL-4 cells (flow cytometry); type: cell-based, mouse; conditions: for Ub-R-GFP-Q112 substrate level: up to 72 hours, serum-free AIM-V medium
Excerpt: (§1) Cells and Culture Conditions. EL-4 is a Benzpyrene-induced lymphoma cell line derived from the C57BI/6 mouse strain. EL-4.wt and EL-4.TPPII^i are EL-4 cells transfected with the pSUPER vector (Brummelkamp, T R, Bernards, R, Agami, R. A system for stable expression of short interfering RNAs in mammalian cells. Science 2002; 296:550-3), empty versus containing the siRNA directed against TPPII. HeLa cells are human cervical carcinoma cells. For induction of stress, cells were starved by growth in 50%-75% Phosphate Buffered Saline (PBS) or gamma-irradiated 250-2000 Rad's; and incubated at 37° C. and 5.3% CO2. Our flow cytometric data represent live cells as determined by flow cytometric gating with Propidium Iodide (PI). For generation of stable transfectants, 5×10^6 cells were washed in PBS, then resuspended into 500 micro-I of PBS in a Bio-Rad gene-pulser and pulsed with 10 micro-g DNA and 250 V at 960 micro-F; and selected by resistance to G418. UbGV76-GFP is a ubiquitin-fusion construct that creates a rapidly degraded GFP molecule for monitoring 26S proteasome activity in live cells through flow cytometry (Dantuma, N. P, Lindsten, K., Glas, R., Jellne, M., and Masucci, M. G. 2000. Short-lived green fluorescent proteins for quantifying ubiquitin/proteasome-dependent proteolysis in living cells. Nat. Biotechnol. 18:538-43). Ub-R-GFP is a similar vector that also encodes a highly unstable GFP molecule degraded through the ubiquitin-proteasome pathway. Ub-R-GFP-Q112 is the same substrate but contains an extended C-terminal with 112 glutamines (Verhoef, L. G., Lindsten, K., Masucci, M. G. and Dantuma, N. P. 2002. Aggregate formation inhibits proteasomal degradation of polyglutamine proteins. Hum Mol. Genet. 11:2689-700).
Flow Cytometry. Fluorescence was quantified by a FACScalibur. Flow cytometric cell sorting of live cells was performed by incubation of cells for 5 minutes with 2 micro-g/ml of Propidium Iodide (PI) and subsequent sorting into PI^+ and PI^− populations with a FACSvantage. […]

EL-4.Ub-R-GFP cells = experiment: GFP reporter substrate fluorescence in EL-4.Ub-R-GFP cells (flow cytometry); type: cell-based, mouse; conditions: live cells, proteasomal inhibitor treatment
Excerpt: as §1, with “Ub-R-GFP is a similar vector that also encodes a highly unstable GFP molecule degraded through the ubiquitin-proteasome pathway. Ub-R-GFP-Q112 is the same substrate but contains an extended C-terminal with 112 glutamines (Verhoef, L. G., Lindsten, K., Masucci, M. G. and Dantuma, N. P. 2002. Aggregate formation inhibits proteasomal degradation of polyglutamine proteins. Hum Mol. Genet. 11:2689-700).” left out
(§2) Flow Cytometry. Fluorescence was quantified by a FACScalibur. […]

HeLa.UbGV76-GFP cells = experiment: GFP reporter substrate fluorescence in HeLa.UbGV76-GFP cells (flow cytometry); type: cell-based, human; conditions: live cells, proteasomal inhibitor treatment
Excerpt: as §1, with “Ub-R-GFP is a similar vector that also encodes a highly unstable GFP molecule degraded through the ubiquitin-proteasome pathway. Ub-R-GFP-Q112 is the same substrate but contains an extended C-terminal with 112 glutamines (Verhoef, L. G., Lindsten, K., Masucci, M. G. and Dantuma, N. P. 2002. Aggregate formation inhibits proteasomal degradation of polyglutamine proteins. Hum Mol. Genet. 11:2689-700).” left out
as §2

EL-4 cells [1] = experiment: Western blotting of TPPII, proteasome alpha-3 and p53 in stressed EL-4 cells; type: cell-based, mouse
Excerpt: as §1, with “Ub-R-GFP-Q112 is the same substrate but contains an extended C-terminal with 112 glutamines (Verhoef, L. G., Lindsten, K., Masucci, M. G. and Dantuma, N. P. 2002. Aggregate formation inhibits proteasomal degradation of polyglutamine proteins. Hum Mol. Genet. 11:2689-700).” left out
Protein Purification, Peptidase Assays and Analysis of DNA Fragmentation. […] Cleavage activity was measured by emission at 460 nm in a LS50B Luminescence Spectrometer (Perkin Elmer, Boston, Mass.). […]
Antibodies and Antisera. The following molecules were detected by the antibodies specified: GFP by rabbit anti-GFP serum (Molecular Probes Europe, Breda, The Netherlands); 19S proteasomal complexes by anti-Rpt6 (19S base ATPase subunit), 20S proteasomal complexes by (Affinity, Exeter, UK); For detection of TPPII we used chicken anti-TPPII serum (Immunsystem, Uppsala, Sweden). […]

EL-4 cells [2] = experiment: Nuclear localization of proteasomes in starved EL-4 cells (immunohistochemistry); type: cell-based, mouse; conditions: starvation, 100 micro-M
Excerpt: as §1, with “Ub-R-GFP is a similar vector that also encodes a highly unstable GFP molecule degraded through the ubiquitin-proteasome pathway. Ub-R-GFP-Q112 is the same substrate but contains an extended C-terminal with 112 glutamines (Verhoef, L. G., Lindsten, K., Masucci, M. G. and Dantuma, N. P. 2002. Aggregate formation inhibits proteasomal degradation of polyglutamine proteins. Hum Mol. Genet. 11:2689-700).” left out

HeLa cells = experiment: Nuclear localization of proteasomes in starved HeLa cells (immunohistochemistry); type: cell-based, human; conditions: starvation, 100 micro-M
Excerpt: as §1, with “Ub-R-GFP is a similar vector that also encodes a highly unstable GFP molecule degraded through the ubiquitin-proteasome pathway. Ub-R-GFP-Q112 is the same substrate but contains an extended C-terminal with 112 glutamines (Verhoef, L. G., Lindsten, K., Masucci, M. G. and Dantuma, N. P. 2002. Aggregate formation inhibits proteasomal degradation of polyglutamine proteins. Hum Mol. Genet. 11:2689-700).” left out

TPP II = biological target: T1, TPP II (Mus musculus, UniProt Q64514); experiment: Inhibition of cleavage of AAF-AMC by enriched TPP II (peptidase assay); type: biochemical; conditions: for cleavage of AAF-AMC, mean: mean of three
T1 construct: 1 ug of high molecular weight protein was used as enzyme in peptidase assays; endogenous in cells
Experimental: It is not necessary to achieve a particularly high level of purification, and conventional simple techniques can be used to obtain TPP II of sufficient quality to use in a screening method. In one non-limiting example of purification of TPP II, 100×10^6 cells (such as EL-4 cells) were sedimented and lysed by vortexing in glass beads and homogenisation buffer (50 mM Tris Base pH 7.5, 250 mM Sucrose, 5 mM MgCl2, 1 mM DTT). Cellular lysates were subjected to differential centrifugation; first the cellular homogenate was centrifuged at 14,000 rpm for 15 min, and then the supernatant was transferred to ultra-centrifugation tubes. Next the sample was ultra-centrifugated at 100,000×g for 1 hour, and the supernatant (denoted as cytosol in most biochemical literature) was subjected to 100,000×g centrifugation for 5 hours, which sedimented high molecular weight cytosolic proteins/protein complexes. The resulting pellet dissolved in 50 mM Tris Base pH 7.5, 30% Glycerol, 5 mM MgCl2, and 1 mM DTT, and 1 ug of high molecular weight protein was used as enzyme in peptidase assays.
It is possible to test the activity of TPP II using for example the substrate AAF-AMC (Sigma, St. Louis, Mo.). This may for example be used at 100 uM concentration in 100 ul of test buffer composed of 50 mM Tri Base pH 7.5, 5 mM MgCl2 and 1 mM DTT. It is possible to stop reactions using dilution with 900 ul 1% SDS solution. Cleavage activity may be measured for example by emission at 460 nm in a LS50B Luminescence Spectrometer (Perkin Elmer, Boston, Mass.).
Protein Purification, Peptidase Assays and Analysis of DNA Fragmentation. 100×10^6 cells were sedimented and lysed by vortexing in glass beads and homogenisation buffer (50 mM Tris Base pH 7.5, 250 mM Sucrose, 5 mM MgCl2, 1 mM DTT). Cellular lysates were submitted to differential centrifugation where a supernatant from a 1 hour centrifugation at 100,000×g (cytosol) was submitted to 100,000×g centrifugation for 3-5 hours, which sedimented high molecular weight cytosolic proteins/protein complexes. The resulting pellet dissolved in 50 mM Tris Base pH 7.5, 30% Glycerol, 5 mM MgCl2, and 1 mM DTT, and 1 micro-g of high molecular weight protein was used as enzyme in peptidase assays or in Western blotting for TPP II expression. To test the activity of TPP II we used the substrate AAF-AMC (Sigma, St. Louis, Mo.), at 100 micro-M concentration in 100 micro-I of test buffer composed of 50 mM Tri Base pH 7.5, 5 mM MgCl2 and 1 mM DTT. Cleavage activity was measured by emission at 460 nm in a LS50B Luminescence Spectrometer (Perkin Elmer, Boston, Mass.). For analysis of DNA fragmentation cells were seeded in 12-well plates at 10^6 cells/ml and exposed to 25 micro-M etoposide, a DNA topoisomerase II inhibitor commonly used as an apoptosis-inducing agent, to starvation (50% PBS). Cells were seeded at 10^6 cells/ml in 12-well plates and incubated for the indicated times, usually 18-24 hours. DNA from EL-4 control and adapted cells was purified by standard chloroform extraction, and 2.5 micro-g of DNA was loaded on 1.8% agarose gel for detection of DNA from apoptotic cells.
TPP II protein was enriched, and then a TPP II-preferred fluorogenic substrate AAF-AMC was used. 100×10^6 cells were sedimented and lysed by vortexing in glass beads and homogenisation buffer (50 mM Tris Base pH 7.5, 250 mM Sucrose, 5 mM MgCl2, 1 mM DTT). Cellular lysates were subjected to differential centrifugation; first the cellular homogenate was centrifuged at 14,000 rpm for 15 min, and then the supernatant was transferred to ultra-centrifugation tubes. Next the sample was ultra-centrifugated at 100,000×g for 1 hour, and the supernatant (denoted as cytosol in most biochemical literature) was subjected to 100,000×g centrifugation for 5 hours, which sedimented high molecular weight cytosolic proteins/protein complexes. […]

Subtilisin = conditions: bacterial homologue of eukaryotic TPP II; cited from earlier work

T1 sequence (Q64514 2-1262 limits assumed): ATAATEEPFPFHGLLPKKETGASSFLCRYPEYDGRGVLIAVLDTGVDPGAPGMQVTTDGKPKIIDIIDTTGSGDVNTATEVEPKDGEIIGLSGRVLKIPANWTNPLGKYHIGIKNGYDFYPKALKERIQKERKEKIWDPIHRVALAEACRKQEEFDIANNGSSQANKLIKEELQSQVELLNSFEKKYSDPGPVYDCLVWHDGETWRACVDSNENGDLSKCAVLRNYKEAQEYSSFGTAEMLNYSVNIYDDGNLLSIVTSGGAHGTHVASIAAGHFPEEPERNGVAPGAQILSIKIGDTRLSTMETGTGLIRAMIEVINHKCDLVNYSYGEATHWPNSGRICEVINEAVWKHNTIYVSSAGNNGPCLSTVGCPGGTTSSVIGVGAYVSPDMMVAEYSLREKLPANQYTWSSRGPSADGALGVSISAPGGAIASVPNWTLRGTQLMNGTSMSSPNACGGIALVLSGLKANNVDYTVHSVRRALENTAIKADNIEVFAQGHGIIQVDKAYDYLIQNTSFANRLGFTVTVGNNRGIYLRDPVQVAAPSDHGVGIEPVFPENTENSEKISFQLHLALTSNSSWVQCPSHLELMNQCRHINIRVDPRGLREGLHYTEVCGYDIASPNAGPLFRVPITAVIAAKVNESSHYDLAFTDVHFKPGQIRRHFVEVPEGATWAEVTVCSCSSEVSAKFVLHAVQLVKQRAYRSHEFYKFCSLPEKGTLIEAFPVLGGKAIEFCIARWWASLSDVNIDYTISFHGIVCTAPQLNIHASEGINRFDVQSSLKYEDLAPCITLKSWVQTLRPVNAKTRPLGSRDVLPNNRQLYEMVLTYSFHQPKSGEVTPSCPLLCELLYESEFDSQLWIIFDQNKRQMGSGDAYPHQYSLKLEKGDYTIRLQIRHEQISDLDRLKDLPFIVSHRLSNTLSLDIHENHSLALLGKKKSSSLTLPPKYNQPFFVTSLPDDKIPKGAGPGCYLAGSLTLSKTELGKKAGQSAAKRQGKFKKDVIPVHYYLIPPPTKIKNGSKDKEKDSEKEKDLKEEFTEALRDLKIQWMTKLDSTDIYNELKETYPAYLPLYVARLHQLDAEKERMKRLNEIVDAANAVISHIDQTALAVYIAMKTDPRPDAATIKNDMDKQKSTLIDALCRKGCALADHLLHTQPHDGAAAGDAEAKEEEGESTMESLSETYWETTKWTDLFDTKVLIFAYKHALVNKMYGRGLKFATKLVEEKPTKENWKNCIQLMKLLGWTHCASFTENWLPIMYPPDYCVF

CC(C)C[C@@H](/C=C/S(C)(=O)=O)NC(=O)[C@H](CC(C)C)NC(=O)[C@H](CC(C)C)NC(=O)Cc1cc(I)c(O)c([N+](=O)[O-])c1 [NLVS, 4-hydroxy-5-iodo-3-nitrophenylacetyl-Leu-Leu-Leu-vinyl sulphone]
accumulation of Ub-R-GFP-Q112 substrate not degraded (EL-4.Ub-R-GFP-Q112 cells; treatment with NLVS): further increased accumulation | steady state levels of GFP-fluorescence (EL-4.Ub-R-GFP cells): strong increase | steady state levels of GFP-fluorescence (HeLa.UbGV76-GFP cells): strong increase | rapid TPPII down regulation during wortmannin treatment (EL-4 cells [1]; starved EL-4 cells, with 1 micro-M wortmannin): prevented

CCCCNC(=O)[C@@H]1Cc2ccccc2N1C(=O)[C@@H](N)CC [Butabindide]
Ub-R-GFP-Q112 substrate level (EL-4.Ub-R-GFP-Q112 cells; 100 micro-M): gradual decline | nuclear localization of proteasomes (EL-4 cells [2]): inhibited nuclear localization of proteasomes | nuclear localization of proteasomes (HeLa cells): inhibited nuclear localization of proteasomes | stabilization of p53 (EL-4 cells [1]; gamma-irradiated (500 Rad) EL-4.wt cells, 100 micro-M from 2 hours before onset): prevent

Cbz-Gly-Leu-Ala-OH [Z-GLA-OH]
cleavage of AAF-AMC, single determination (TPP II; compound at 1 nM): 32.54 fluorometric units and 32.61 fluorometric units and 33.41 fluorometric units | cleavage of AAF-AMC, mean (TPP II; compound at 1 nM): 32.85 fluorometric units | cleavage of AAF-AMC, single determination (TPP II; compound at 10 nM): 21.74 fluorometric units and 21.93 fluorometric units and 24.44 fluorometric units | cleavage of AAF-AMC, mean (TPP II; compound at 10 nM): 22.70 fluorometric units | cleavage of AAF-AMC, single determination (TPP II; compound at 100 nM): 14.43 fluorometric units and 14.26 fluorometric units and 14.37 fluorometric units | cleavage of AAF-AMC, mean (TPP II; compound at 100 nM): 14.35 fluorometric units | cleavage of AAF-AMC, single determination (TPP II; compound at 1 uM): 11.43 fluorometric units and 11.9 fluorometric units and 11.46 fluorometric units | cleavage of AAF-AMC, mean (TPP II; compound at 1 uM): 11.60 fluorometric units | cleavage of AAF-AMC, single determination (TPP II; compound at 10 uM): 6.47 fluorometric units and 7.66 fluorometric units and 7.49 fluorometric units | cleavage of AAF-AMC, mean (TPP II; compound at 10 uM): 7.21 fluorometric units | cleavage of AAF-AMC, single determination (TPP II; compound at 100 uM, arbitrary but relative units, lower = more inhibition): 1.14 fluorometric units and 1.44 fluorometric units and 1.55 fluorometric units | cleavage of AAF-AMC, mean (TPP II; compound at 100 uM): 1.38 fluorometric units | Ub-R-GFP-Q112 substrate level (EL-4.Ub-R-GFP-Q112 cells; 25-microM): gradual decline | TPPII expression (EL-4 cells [1]; gamma-irradiated (500 Rad) EL-4.wt cells, 25 micro-M): strong reduction | inhibition of Subtilisin (Subtilisin): inhibit

Source: US20090227521A1, “USE OF COMPOUNDS IN THE TREATMENT OF ISCHEMIA AND NEURODEGENERATION” (priority 2006, published 2009)
